Experimental data: ChEMBL document CHEMBL6109137, “Design, Synthesis, Evaluation, and SAR of 5-Phenylisoindoline Derivatives, a Potent Class of Small-Molecule Inhibitors Targeting the Programmed Cell Death-1/Programmed Cell Death-Ligand 1 (PD-1/PD-L1) Interaction” (J Med Chem, 2025)
Calls of active or inactive are those of the source. The rule behind the calls is not given here.

Experiments:
[1] = Toxicity in C57BL/6J mouse implanted with mouse MC38 cells assessed as animal mortality at 5 to 20 mg/kg, ip qd for 13 days; format: organism-based; conditions: in vivo, 312 h, dose 5-20 mg/kg, time 13 day
[2] = Toxicity in C57BL/6J mouse implanted with mouse MC38 cells assessed as change in body weight at 5 to 20 mg/kg, ip qd for 13 days; format: organism-based; conditions: in vivo, 312 h, dose 5-20 mg/kg, time 13 day
[3] = biological target: Programmed cell death protein 1/Programmed cell death 1 ligand 1 (Homo sapiens) (UniProt Q15116+Q9NZQ7); experiment: Inhibition of PD-1/PD-L1 (unknown origin) interaction in human PBMC cells assessed as increase in IFN-gamma level at 100 nM pretreated with anti-CD3/CD28 and PD-L1 followed by compound addition measured after 72 hrs by ELISA; format: cell-based
PBMC = experiment: Inhibition of apoptosis in human PBMC cells assessed as reduction in PD-L1-induced proportion of terminal phase apoptotic cells by flow cytometry; format: functional, cell-based
[4] = Cytotoxicity against human HaCaT cells measured after 48 hrs by MTT assay; format: toxicity, cell-based
[5] = Cytotoxicity against HEK293T cells measured after 48 hrs by MTT assay; format: toxicity, cell-based, HEK-293T; conditions: human
[6] = AUC (0 to 24 hrs) in Sprague-Dawley rat at 10 mg/kg, ip measured for 24 hrs by LC-MS/MS analysis; format: ADME, organism-based; conditions: in vivo
[7] = Clearance in Sprague-Dawley rat at 10 mg/kg, ip measured for 24 hrs by LC-MS/MS analysis; format: ADME, organism-based; conditions: in vivo
[8] = Half life in Sprague-Dawley rat at 20 mg/kg, po measured for 24 hrs by LC-MS/MS analysis; format: ADME, organism-based; conditions: in vivo
[9] = Tmax in Sprague-Dawley rat at 20 mg/kg, po measured for 24 hrs by LC-MS/MS analysis; format: ADME, organism-based; conditions: in vivo
[10] = AUC (0 to 24 hrs) in Sprague-Dawley rat at 20 mg/kg, po measured for 24 hrs by LC-MS/MS analysis; format: ADME, organism-based; conditions: in vivo
[11] = Clearance in Sprague-Dawley rat at 20 mg/kg, po measured for 24 hrs by LC-MS/MS analysis; format: ADME, organism-based; conditions: in vivo
[12] = AUC (0 to infinity) in Sprague-Dawley rat at 20 mg/kg, po measured for 24 hrs by LC-MS/MS analysis; format: ADME, organism-based; conditions: in vivo
[13] = Oral bioavailability in Sprague-Dawley rat at 20 mg/kg measured for 24 hrs by LC-MS/MS analysis; format: ADME, organism-based; conditions: in vivo
MC-38 [14] = experiment: Antitumor activity against mouse MC38 cells implanted in C57BL/6J mouse administered intraperitoneally once a day for 13 days; format: functional, cell-based; conditions: dose 5-20 mg/kg, route ip, time 13.0 day
[15] = Toxicity in C57BL/6J mouse implanted with mouse MC38 cells assessed as change in excised body weight at 5 to 20 mg/kg, ip qd for 13 days; format: organism-based; conditions: in vivo, 312 h, dose 5-20 mg/kg, time 13 day
[16] = Toxicity in C57BL/6J mouse implanted with mouse MC38 cells assessed as change in lung index at 5 to 20 mg/kg, ip qd for 13 days; format: organism-based; conditions: in vivo, 312 h, dose 5-20 mg/kg, time 13 day
[17] = Toxicity in C57BL/6J mouse implanted with mouse MC38 cells assessed as change in brain index at 5 to 20 mg/kg, ip qd for 13 days; format: organism-based; conditions: in vivo, 312 h, dose 5-20 mg/kg, time 13 day
[18] = Toxicity in C57BL/6J mouse implanted with mouse MC38 cells assessed as injury in kidney at 5 to 20 mg/kg, ip qd for 13 days by H and E staining based analysis; format: organism-based; conditions: in vivo, 312 h, dose 5-20 mg/kg, time 13 day
[19] = Toxicity in C57BL/6J mouse implanted with mouse MC38 cells assessed as change in serum AST level at 5 to 20 mg/kg, ip qd for 13 days; format: organism-based; conditions: in vivo, 312 h, dose 5-20 mg/kg, time 13 day
[20] = Toxicity in C57BL/6J mouse implanted with mouse MC38 cells assessed as change in serum ALT level at 5 to 20 mg/kg, ip qd for 13 days; format: organism-based; conditions: in vivo, 312 h, dose 5-20 mg/kg, time 13 day
[21] = Toxicity in C57BL/6J mouse implanted with mouse MC38 cells assessed as change in serum urea level at 5 to 20 mg/kg, ip qd for 13 days; format: organism-based; conditions: in vivo, 312 h, dose 5-20 mg/kg, time 13 day
MC-38 [22] = experiment: Antitumor activity against mouse MC38 cells implanted in C57BL/6J mouse assessed as increase in infiltration of CD8+ T cells at 5 to 20 mg/kg, ip qd for 13 days by IHC analysis; format: functional, organism-based; conditions: dose 5-20 mg/kg, time 13.0 day
Mus musculus = experiment: Restoration of immune function in C57BL/6J mouse implanted with mouse MC38 cells assessed as increase in serum TNF-alpha level administered intraperitoneally once daily for 13 days by ELISA; format: functional, organism-based; conditions: dose 5-20 mg/kg, route ip, time 13.0 day
MC-38 [23] = experiment: Antitumor activity against mouse MC38 cells implanted in C57BL/6J mouse assessed as tumor growth inhibition at 160 mg/kg, IG qd; format: functional, organism-based; conditions: time 7.0 day
[24] = Toxicity in C57BL/6J mouse implanted with mouse MC38 cells assessed as change in excised body weight at 40 to 160 mg/kg, IG qd for 7 days; format: organism-based; conditions: in vivo, po, 168 h, dose 40-160 mg/kg, time 7 day
[25] = Toxicity in C57BL/6J mouse implanted with mouse MC38 cells assessed as heart weight ratio at 40 to 160 mg/kg, IG qd for 7 days; format: organism-based; conditions: in vivo, po, 168 h, dose 40-160 mg/kg, time 7 day
[26] = Toxicity in C57BL/6J mouse implanted with mouse MC38 cells assessed as liver weight ratio at 40 to 160 mg/kg, IG qd for 7 days; format: organism-based; conditions: in vivo, po, 168 h, dose 40-160 mg/kg, time 7 day
[27] = Toxicity in C57BL/6J mouse implanted with mouse MC38 cells assessed as lung weight ratio at 40 to 160 mg/kg, IG qd for 7 days; format: organism-based; conditions: in vivo, po, 168 h, dose 40-160 mg/kg, time 7 day
[28] = Toxicity in C57BL/6J mouse implanted with mouse MC38 cells assessed as brain weight ratio at 40 to 160 mg/kg, IG qd for 7 days; format: organism-based; conditions: in vivo, po, 168 h, dose 40-160 mg/kg, time 7 day
[29] = Toxicity in C57BL/6J mouse implanted with mouse MC38 cells assessed as change in CREA-SOX level at 40 to 160 mg/kg, IG qd for 7 days; format: organism-based; conditions: in vivo, po, 168 h, dose 40-160 mg/kg, time 7 day
[30] = Toxicity in C57BL/6J mouse implanted with mouse MC38 cells assessed as change in PCT count at 40 to 160 mg/kg, IG qd for 7 days; format: organism-based; conditions: in vivo, po, 168 h, dose 40-160 mg/kg, time 7 day
[31] = Toxicity in C57BL/6J mouse implanted with mouse MC38 cells assessed as change in monocytes count at 40 to 160 mg/kg, IG qd for 7 days; format: organism-based; conditions: in vivo, po, 168 h, dose 40-160 mg/kg, time 7 day
[32] = Toxicity in C57BL/6J mouse implanted with mouse MC38 cells assessed as change in neutrophils count at 40 to 160 mg/kg, IG qd for 7 days; format: organism-based; conditions: in vivo, po, 168 h, dose 40-160 mg/kg, time 7 day
[33] = Toxicity in C57BL/6J mouse implanted with mouse MC38 cells assessed as change in RBC count at 40 to 160 mg/kg, IG qd for 7 days; format: organism-based; conditions: in vivo, po, 168 h, dose 40-160 mg/kg, time 7 day
[34] = Toxicity in C57BL/6J mouse implanted with mouse MC38 cells assessed as change in MCH count at 40 to 160 mg/kg, IG qd for 7 days; format: organism-based; conditions: in vivo, po, 168 h, dose 40-160 mg/kg, time 7 day
[35] = Toxicity in C57BL/6J mouse implanted with mouse MC38 cells assessed as change in MCV count at 40 to 160 mg/kg, IG qd for 7 days; format: organism-based; conditions: in vivo, po, 168 h, dose 40-160 mg/kg, time 7 day
[36] = Toxicity in C57BL/6J mouse implanted with mouse MC38 cells assessed as change in MCHC count at 40 to 160 mg/kg, IG qd for 7 days; format: organism-based; conditions: in vivo, po, 168 h, dose 40-160 mg/kg, time 7 day

C[C@H](N)C(=O)N1Cc2ccc(-c3cccc(-c4ccc5c(c4)OCCO5)c3Cl)cc2C1.Cl
Activity [1]: Non-toxic | Activity [2]: Non-toxic | inhibition [3]: Active | inhibition (PBMC): Active | IC50 at 48 h [4]: > 100 µM | IC50 at 48 h [5]: > 10 µM | AUC(0-t) at 24 h [6]: 1010 ng·h/mL | CL/F [7]: 103 mL/min/kg | half-life [8]: 3.58 h | Tmax [9]: 2.5 h | AUC(0-t) at 24 h [10]: 467 ng·h/mL | CL/F [11]: 401 mL/min/kg | AUC(0-inf) [12]: 644 ng·h/mL | bioavailability [13]: 21.4% | Activity (MC-38 [14]): Dose-dependent-effect | Activity [15]: Non-toxic | Activity [16]: Non-toxic | Activity [17]: Non-toxic | Activity [18]: Non-toxic | Activity [19]: Non-toxic | Activity [20]: Non-toxic | Activity [21]: Non-toxic | Activity (MC-38 [22]): Active | Activity (Mus musculus): Dose-dependent-effect | inhibition (MC-38 [23]): Time-dependent-effect | Activity [24]: Non-toxic | Activity [25]: Non-toxic | Activity [26]: Non-toxic | Activity [27]: Non-toxic | Activity [28]: Non-toxic | Activity [29]: Non-toxic | Activity [30]: Non-toxic | Activity [31]: Non-toxic | Activity [32]: Non-toxic | Activity [33]: Non-toxic | Activity [34]: Non-toxic | Activity [35]: Non-toxic | Activity [36]: Non-toxic
